Values of other authors in patent US12343434B2, “Hybrid membrane camouflaged nanomedicine loaded with oxidative phosphorylation inhibitor and preparing method thereof” (Henan University, priority 2021, dated 2025).

Details: background statement

Q: With CCc1n(CC(=O)O[C@@H]2C[C@H](C)CC[C@H]2C(C)C)c2ccccc2[n+]1C.[Cl-] [Gboxin, 1-carboxymethyl-2-ethyl-3-methyl-1H-benzimidazole-3-ammonium L-menthol ester chloride] as the molecule, how does the blood half-life read?
A: extremely short
